Measurements taken from patent US20140120184A1, “ARGON-BASED INHALABLE GASEOUS MEDICINAL PRODUCT FOR THE TREATMENT OF NEUROINTOXICATIONS” (Air Liquide Sante (International), priority 2003, published 2014).

Columns and labels:
Type in all cases: in vivo, Sprague-Dawley rats
[1] = test system: sensitization to D-amphetamine; assay: Locomotor activity on D7 after D-amphetamine challenge (photoelectric cell actimetry) in the D-amphetamine sensitization protocol; settings: rats given D-amphetamine 1 mg/kg i.p. D1-D3, each injection followed by 3 h gas exposure, versus sensitized rats treated with air
Protocol: (§1) To do this, adult male Sprague-Dawley rats that weighed approximately 220 g when they arrived in the laboratory were used. Throughout the study, the animals were placed under standard animalhouse conditions, in groups of 8, so as to avoid the appearance of a stress reaction subsequent to isolation. They had water and food ad libitum.
(§2) For 3 consecutive days (from D1 to D3), 8 groups of animals (8 rats per group) were administered intraperitoneally (i.p.) either D-amphetamine (amph: 1 mg/ml/kg), or a saline solution (saline: 1 ml/kg) for the control animals. […]
(§3) The locomotor activity and the righting activity of the animals were evaluated at D6, after an i.p. injection of a saline solution (1 ml/kg) in order to determine the actual effects of the treatments administered with the various gases and mixtures of gas, and on D7 after an i.p. administration of D-amphetamine (1 mg/ml/kg) in order to evaluate the effects of the gases and mixtures of gas on sensitization to D-amphetamine. […]
(§4) The results obtained (see FIGS. 1 and 2) are expressed as the mean±the standard error of the mean. […]

[2] = Overall and qualitative evaluation of the gas-treated rats (neurotoxic effect, behaviour) during the sensitization protocol; settings: conclusion from locomotor and righting activity of the gas-exposed rats
Protocol: as §1, §2, §3

[3] = test system: sensitization to D-amphetamine; assay: Stereotypic righting activity on D7 after D-amphetamine challenge (photoelectric cell actimetry) in the D-amphetamine sensitization protocol; settings: rats given D-amphetamine 1 mg/kg i.p. D1-D3, each injection followed by 3 h gas exposure, versus sensitized rats treated with air
Protocol: as §1, §2, §3, §4

argon [argon at 75 vol %]
effect on the locomotor hyperactivity inherent to the development of sensitization to D-amphetamine [1]: total inhibitory effect | neurotoxic effect [2]: without any neurotoxic effect being observed | effect on the righting activity corresponding to the development of the sensitization to D-amphetamine [3]: inhibitory effect
